No end group written: not given here.

Type in all cases: cell-based
The subject of test [1] is HeLa cell, a cervical cancer cell line. Nature of the test: Cell-killing effect on HeLa cells, crystal violet staining of attached living cells. The note with it: for cell-killing activity compared with CKP peptide: procedure of Example 2, FIG. 6; for cell-killing activity: procedure of Example 2, crystal violet. On the procedure: In order to examine the cell-killing effect of CKP peptide synthesized in Example 1, HeLa cell, a cervical cancer cell line was adopted and cultivated. The culture medium was replaced with experimental media containing CKP peptide solution in 0, 1, 5, 10, 15, 20, 30, 40 μM of concentration serially and cultivated for more 24 hours. In order to observe living cells attached on the surface, the resulting cells were stained for 10 minutes by using 100 μl of 0.5% crystal violet and then, washed out by using distilled water and running water to be de-stained, while discarding cells floating on the culture medium. Then, cells were observed by photography after placing culture vessel under a fluorescent lamp box as depicted in FIG. 3. At this moment, living cells attached on the surface appeared blue color since they were stained by crystal violet.

For test [2] the test system is unchanged. Described as above. To be noted: pan-caspase inhibitor z-VAD-fmk in culture media, FIG. 11.
For test [3] the test system is unchanged. Kind of test: Relative survival ratio of HeLa cells, counted from time-lapse microscopy. To be noted: 1 hour. Here is the method: In order to measure the strength of CKP peptide, several substances that are known to kill cells were adopted to compare the cell-killing effects. HeLa cell, a cervical cancer cell line was cultivated and treated with CKP peptide, TRAIL and Cisplatin to 30 μM, 100 ng/ml and 100 μg/ml respectively for 1 hour. After that, the resulting cells were observed under time-lapse video capture microscopy (Leica, Model: DMI RBE, Germany) in 20 seconds of time-interval for 1 hour by the procedure described in Example 5, photographed to 40×, counted for the numbers of living cells and dead cells and then, estimated the relative survival ratio in a graph. […] As a consequence, it is clarified that CKP peptide of the present invention had the strongest cell-killing effect about 9-fold more than TRAIL or Cisplatin.

The subject of test [4] is HeLa cell lines. Kind of test: Time-lapse video capture microscopy of HeLa cell death. The note with it: for morphology of dead HeLa cells: CKP at 23 minutes and 20 seconds, TRAIL at 5 hours and 30 minutes, FIG. 8. Here is the method: In order to analyze the action mode of CKP peptide of the present invention, several substances that are known to kill cells were adopted to compare the cell-killing effects. Above all, CKP peptide (10 μM), TRAIL (100 ng/ml) and Cisplatin (100 μg/ml) were treated to HeLa cell lines and observed under time-lapse video capture microscopy (Leica, Model: DMIRBE, Germany) in some time-interval (for CKP peptide, 20 seconds; TRAIL, 40 seconds; Cisplatin, 3 minutes) for 1 hour and 40 minutes, 3 hours and 30 minutes, 8 hours and 48 hours respectively. Then, the results were photographed to 40× by using FW4000 software. FIG. 7 depicts HeLa cells serially at each time interval. As a result, it is observed that the cell death caused by TRAIL started at about 1 hour and 30 minutes after treatment and reached the maximum level at about 8 hours. To the contrary, HeLa cell started to die at about 10 minutes after treating CKP peptide and most of HeLa cells have died even at 23 minutes and 20 seconds.

With “CKP 2: SEQ ID NO: 5 (RRRRRRRRGRQKALNLISKLF), substituted in one residue (fusion protein)”, the “cell-killing activity compared with CKP peptide” value in test [1] is reported as “decreased the cell-killing activity slightly”.
As to “CKP 5: SEQ ID NO: 8 (RRRRRRRRGRQKALNLIAALF), substituted in three residues (fusion protein)”, in test [1], the “cell-killing activity compared with CKP peptide” value is recorded as “decreased the cell-killing activity slightly”.
For the molecule “CKP 7: SEQ ID NO: 10 (RRRRRRRRGRQKLLNAISKLF), 5th leucine substituted to alanine (Fusion protein)”, the “cell-killing activity compared with CKP peptide” value in test [1] is “decreased the cell-killing activity remarkably”.
Regarding “BidBH3CKP: fusion protein that combines CKP peptide with BidBH3 peptide, SEQ ID NO: 12 (RRRRRRRRGNIARHLAQVGDSMDRRQKLLNLISKLF; Fusion protein)”, the “difference of cell-killing activity with or without z-VAD-fmk” value in test [2] is “not significant difference”. For the same molecule, the “cell-killing activity relative to BidBH3 peptide” value in test [1] (procedure of Example 2) turned out to be 2 fold.
As for “Bid(mt)BH3CKP: fusion protein combining CKP peptide with mutant BidBH3 deleting the active site of BH3 domain, SEQ ID NO: 13 (RRRRRRRRGNIARHLAQVADSMDRRQKLLNLISKLF; Fusion protein)”, in test [1], the cell-killing activity result is “had the cell-killing activity”.
In the case of “CKP 3: SEQ ID NO: 6 (RRRRRRRRGRQKLAALISKLF), substituted in two residues (fusion protein)”, the “cell-killing activity compared with CKP peptide” value in test [1] is “decreased the cell-killing activity slightly”.
RRRRRRRRGRQKLLNLISKLF [CKP peptide]: the “concentration from which cell-killing activity is seen” value in test [1] (0-40 μM, 24 hours, crystal violet, FIG. 3) was at least 10 µM. Further, in test [1], the cell-killing activity entry is “became strong remarkably”. Further, in test [3], the “cell-killing effect relative to TRAIL or Cisplatin” value was “about 9 fold”. Also, the “morphology of dead HeLa cells” value in test [4] was “several cell membranes like balloon”. In addition, the “time at which HeLa cells started to die after treatment” value in test [4] (CKP peptide 10 μM) is “about 10 minutes”.
Consider “PTD domain without CKP domain: only PTD domain without CKP domain, synthesized as in Example 1 (RRRRRRRRG; protein transduction domain) [reference compound]”, for which, in test [1], the cell-killing activity entry is “not detected at all”.
Regarding “CKP 8: SEQ ID NO: 11 (RRRRRRRRGRQKLLNLISKAF), 9th leucine substituted to alanine (Fusion protein)”, in test [1], the “cell-killing activity compared with CKP peptide” value was “decreased the cell-killing activity remarkably”.
With “CKP 4: SEQ ID NO: 7 (RRRRRRRRGRQKLLNLIAALF), substituted in two residues (fusion protein)”, the “cell-killing activity compared with CKP peptide” value in test [1] is listed as “outstanding rather than CKP peptide”.
Regarding “CKP 6: SEQ ID NO: 9 (RRRRRRRRGRQKAANLISKLF), 2nd and 3rd leucines substituted to alanine (Fusion protein)”, in test [1], the “cell-killing activity compared with CKP peptide” value is reported as “decreased the cell-killing activity remarkably”.

B1: TRAIL (protein, UniProt P50591 1-281, looked up)
Tumor necrosis factor ligand …: MAMMEVQGGPSLGQTCVLIVIFTVLLQSLCVAVTYVYFTNELKQMQDKYSKSGIACFLKEDDSYWDPNDEESMNSPCWQVKWQLRQLVRKMILRTSEETISTVQEKQQNISPLVRERGPQRVAAHITGTRGRSNTLSSPNSKNEKALGRKINSWESSRSGHSFLSNLHLRNGELVIHEKGFYYIYSQTYFRFQEEIKENTKNDKQMVQYIYKYTSYPDPILLMKSARNSCWSKDAEYGLYSIYQGGIFELKENDRIFVSVTNEHLIDMDHEASFFGAFLVG
notes: substance known to kill cells, used as comparator
As for B1, the “morphology of dead HeLa cells” value in test [4] was “not to have cell membrane like balloon”. In addition, in test [4] (TRAIL 100 ng/ml), the “time at which cell death reached the maximum level” value is “about 8 hours”.

For the origin of these results see US8329862B1, “Cell-killing peptide derived from the C-terminus of NOXA protein” (Chosun University, priority 2004, dated 2012).
